2 compounds from US20250313648A1, “Binders of Chondroitin Sulfate Proteoglycan (CSPG4) Polypeptides” (Regents of the University of Minnesota, priority 2021, published 2025) can be followed below.

The test system of experiment [1] is ZEB1 expression in HEY cells. The experiment is described as follows: Western blot for pFAK, FAK and ZEB1 after FAK inhibitor treatment. Format: cell-based, human. The note with it: normal growth medium, 24 hours, vs DMSO. The procedure: FIGS. 9A-9J. CSPG4 expression is associated with epithelial-to-mesenchymal plasticity, mediated by CSPG4 associated changes in ZEB1 expression. FIG. 9A) The indicated cell lines both Mock(M) and CRISPR(C) were cultured separately in spheroid formation assays for 7 days, collected and analyzed by western blot for various EMT markers. FIG. 9B) Western blot for Zebl and CSPG4 expression in EOC cell lines treated with siRNA for ZEB1 or control for 48 hours. FIG. 9C) Western blot for pFAK, FAK and ZEB1 in HEY cells treated with either DMSO (control) or FAK inhibitor PND-1186 at the indicated concentrations in normal growth medium for 24 hours. FIG. 9D) Spheroid formation in methylcellulose of EOC cell lines treated with siRNA to ZEB1 or control for 7 days. Bars represent spheroid counts from five random fields/well from triplicate wells+/−S.D. *p<0.02 by students t-test with Welch's correction. n=3 from 3 individual experiments. FIG. 9E) Invasion assay of EOC cells treated with ZEB1 siRNA or control siRNA (methods). *p<0.002 by student's t-test with Welch's correction. n=3 from 3 individual experiments. FIGS. 9F and 9G) Cells were transfected with control or ZEB1 siRNA overnight and plated in the cisplatin cytotoxicity assay the following day. MTS data was collected after 4 days of cisplatin treatment. […]
(In western blotting, separated proteins are transferred to a membrane and probed.)

Experiment [2] relates to ES-2, HEY, A2780 mock and CSPG4 knockout cells. The experiment is described as follows: Cisplatin cytotoxicity assay (MTS). The conditions noted are these: CSPG4 knockout vs mock, three cell lines (A2780, HEY, ES-2), 96 hours of treatment. The format is cell-based, human. The source says: FIGS. 5A-5G. CSPG4 knockout results in significant loss of invasive capacity and cisplatin resistance in multiple ovarian tumor cell lines. Invasion assays using control (Mock) and CSPG4 knockout (CRISPR) HEY cells (FIG. 5A) or A2780 cells (FIG. 5B). Bars represent the total number of invading cells from five random fields/well from triplicate wells, +/−S.D., from three replicate experiments, n=6. P values determined by student's t-test with Welch's correction. […] Lanes: 1—ES-2 Parent, 2—ES-2 Mock, 3—ES-2 CSPG4 knockout, 4—ES-2 CSPG4 Rescue. […] Invasive capacity is rescued in the ES-2 CRISPR knockout line with CSPG4 re-expression (Rescue). P values determined by student's t-test with Welch's correction. FIGS. 5E-G show the cell viability of mock and knockout (CRISPR) A2780 cells (FIG. 5E), mock and knockout HEY cells (FIG. 5F), and mock, knockout and rescue ES-2 cells (FIG. 5G) treated with increasing concentrations of cisplatin. Dose response curves were plotted as the percent of MTS staining vs. untreated cells for each cell line +/−s.e.m. from three replicate experiments (n=9). The phenotype was rescued by re-expression of CSPG4 in the ES-2 CRISPR cells (ES-2 Rescue, in FIG. 5G).
Cisplatin cytotoxicityAssay: Cisplatin stock (3.3 mM) was diluted with growth medium to the required concentrations before each experiment. […] Absorbance at 570 nm was collected on a Tecan 200 plate reader. […]

Turning to `CNC(=O)c1ccccc1Nc1cc(Nc2ccc(N3CCOCC3)cc2OC)ncc1C(F)(F)F` [PND-1186], in experiment [1], the ZEB1 expression entry is listed as “inhibited”.

For `N.N.[Cl][Pt][Cl]` [cisplatin, Cisplatin], in experiment [2], the “reduction in the IC50 for the knockout cell lines” value is 3.6-to-8.8 fold.
